Results reported in patent US6875743B1, “Cell adhesion inhibitors” (Biogen, Inc., priority 1996, dated 2005).
Numbered stars: 1 amine (or outer) side, 2 acyl side, 3 side chain; on linkers, the order of the positions; unused ones are H or OH. Square brackets hold non-standard residues; d marks the D form. Peptide text beside a SMILES is read from it. * marks the point of attachment. ξ: configuration not given here. X1 = O=C(Cc1ccc(N[*:1])cc1)[*:2]; ξTic = O=C(O)C1Cc2ccccc2CN1; PhAc = O=C(Cc1ccccc1)*; CO = O=C([*:1])[*:2]; NHPh = c1ccc(N*)cc1; X3 = Cc1cccc(N*)n1

What follows are compounds tested against T1, VLA4 (Homo sapiens, UniProt P05556+P13612) (assay: Inhibition of VLA4-dependent adhesion to BSA-CS1). Settings: binding of BCECF-labelled Ramos cells to BSA-CS1 coated wells, 2 mM MnCl2; read-out: IC50.
T1 construct: endogenous in cells; host or cells: Ramos cells
T1 sequence (P13612 34-1032): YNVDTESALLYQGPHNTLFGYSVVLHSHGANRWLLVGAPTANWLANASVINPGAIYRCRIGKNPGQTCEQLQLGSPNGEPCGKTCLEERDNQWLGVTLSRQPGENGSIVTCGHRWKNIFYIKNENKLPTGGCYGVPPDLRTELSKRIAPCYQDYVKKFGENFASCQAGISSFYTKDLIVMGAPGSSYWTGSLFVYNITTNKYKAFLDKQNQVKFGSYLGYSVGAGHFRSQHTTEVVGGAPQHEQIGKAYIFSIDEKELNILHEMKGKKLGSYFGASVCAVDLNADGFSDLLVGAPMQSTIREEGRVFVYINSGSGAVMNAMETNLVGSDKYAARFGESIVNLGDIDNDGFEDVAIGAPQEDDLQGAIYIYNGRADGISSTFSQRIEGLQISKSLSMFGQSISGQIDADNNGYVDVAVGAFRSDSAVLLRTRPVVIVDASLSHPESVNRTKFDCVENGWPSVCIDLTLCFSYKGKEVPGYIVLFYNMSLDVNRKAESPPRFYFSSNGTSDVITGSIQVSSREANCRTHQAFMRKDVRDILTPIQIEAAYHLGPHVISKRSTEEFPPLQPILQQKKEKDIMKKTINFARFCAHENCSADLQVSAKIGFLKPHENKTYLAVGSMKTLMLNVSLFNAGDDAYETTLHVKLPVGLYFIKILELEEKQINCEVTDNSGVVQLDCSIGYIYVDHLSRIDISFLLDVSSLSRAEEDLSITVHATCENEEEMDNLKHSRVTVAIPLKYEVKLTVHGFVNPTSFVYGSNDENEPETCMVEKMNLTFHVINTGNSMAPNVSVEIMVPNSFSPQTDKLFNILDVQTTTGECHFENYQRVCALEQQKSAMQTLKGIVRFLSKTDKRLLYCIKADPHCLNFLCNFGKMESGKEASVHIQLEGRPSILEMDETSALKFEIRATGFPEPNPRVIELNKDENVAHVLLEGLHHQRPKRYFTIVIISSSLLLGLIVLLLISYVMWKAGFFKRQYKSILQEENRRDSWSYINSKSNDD
T1 sequence (P05556 21-798): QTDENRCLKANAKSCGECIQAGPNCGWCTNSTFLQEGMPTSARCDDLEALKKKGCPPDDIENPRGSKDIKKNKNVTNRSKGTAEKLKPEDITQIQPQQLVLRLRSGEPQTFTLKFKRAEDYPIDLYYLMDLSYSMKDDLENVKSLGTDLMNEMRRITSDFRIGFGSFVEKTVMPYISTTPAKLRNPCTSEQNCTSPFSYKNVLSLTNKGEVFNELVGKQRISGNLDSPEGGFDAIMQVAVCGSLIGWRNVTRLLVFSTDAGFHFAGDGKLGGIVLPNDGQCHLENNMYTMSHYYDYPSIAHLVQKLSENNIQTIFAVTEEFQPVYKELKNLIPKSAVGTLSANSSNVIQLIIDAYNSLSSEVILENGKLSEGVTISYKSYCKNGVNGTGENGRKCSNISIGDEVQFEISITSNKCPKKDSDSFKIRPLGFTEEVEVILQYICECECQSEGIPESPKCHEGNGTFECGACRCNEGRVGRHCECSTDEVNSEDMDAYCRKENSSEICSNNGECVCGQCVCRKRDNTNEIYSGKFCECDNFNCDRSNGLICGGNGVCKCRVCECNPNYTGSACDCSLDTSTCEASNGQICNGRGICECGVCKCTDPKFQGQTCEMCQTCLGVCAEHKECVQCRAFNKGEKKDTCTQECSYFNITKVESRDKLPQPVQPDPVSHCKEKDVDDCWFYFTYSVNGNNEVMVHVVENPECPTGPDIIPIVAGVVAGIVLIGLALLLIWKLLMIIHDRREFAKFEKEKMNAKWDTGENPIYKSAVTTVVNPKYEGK
Format: cell-based

Compound	IC50 [µM]
COC(=O)[C@@H](NC(=O)[C@H](CC(=O)O)N1CCC(NC(=O)CCc2ccc(O)cc2)C1=O)C(C)C (stereo partly drawn) [Compound 335]	> 10
CC(C)CC(NC(=O)Cc1ccc(NC(=O)Nc2ccccc2)cc1)C(=O)NC(CC(=O)O)C(=O)NC(C(=O)N1CCCC1C(N)=O)C(C)C (stereo not drawn) [Compound 199] ({NHPh-CO}-[X1]LDVP-NH2; configuration not given here)	0.05 to 10
COC(=O)C[C@H](NC(=O)[C@H](CC(C)C)N(C)CCCc1ccccc1)C(=O)N[C@H](C(=O)OC)C(C)C [Compound 112]	> 10
Cc1ccccc1NC(=O)Nc1ccc(CC(=O)N2CCC[C@H]2C(=O)N[C@@H](CC(=O)O)C(=O)O)cc1 [Compound 342]	> 10
CNC(=O)[C@@H](CC(C)C)NC(=O)[C@H](CCC(=O)O)NC(=O)[C@@H]1CCCN1C(=O)Cc1ccc(NC(=O)Nc2ccccc2C)cc1 [Compound 414]	0.05 to 10
Cc1ccccc1NC(=O)Nc1ccc(CC(=O)N[C@@H](CCC(N)=O)C(=O)N[C@@H](CC(=O)O)C(=O)N[C@H](CCC(=O)O)C(N)=O)cc1 [Compound 305]	< 0.05
Cc1ccccc1NC(=O)Nc1ccc(CC(=O)N[C@H](C(=O)N[C@@H](CC(=O)O)C(=O)N[C@H](CC(C)C)C(N)=O)[C@@H](C)O)cc1 [Compound 255]	< 0.05
CSCC[C@H](NC(=O)[C@H](CC(=O)O)NC(=O)[C@H](CCC(=O)O)NC(=O)Cc1ccc(NC(=O)Nc2ccccc2C)cc1)C(N)=O [Compound 269]	< 0.05
CCn1cc(C(=O)N[C@@H](CC(C)C)C(=O)N[C@@H](CC(=O)O)C(=O)N[C@H](C(=O)O)C(C)C)c(=O)c2ccc(C)nc21 [Compound 403]	> 10
Cc1ccccc1NC(=O)Nc1ccc(CC(=O)N2CCC[C@H]2C(=O)N[C@@H](CC(=O)O)C(=O)N[C@@H](CCC(=O)O)C(N)=O)cc1 [Compound 245]	< 0.05
CSCC[C@H](NC(=O)Cc1ccc(NC(=O)Nc2ccccc2C)cc1)C(=O)N[C@@H](CC(=O)O)C(=O)N[C@H](CC(C)C)C(N)=O [Compound 222]	< 0.05
Cc1ccccc1NC(=O)Nc1ccc(CC(=O)N[C@@H](CO)C(=O)N[C@@H](CC(=O)O)C(=O)N[C@H](C(N)=O)[C@@H](C)O)cc1 [Compound 280]	< 0.05
Cc1ccc2nc(C(=O)N[C@@H](CC(C)C)C(=O)N[C@@H](CC(=O)O)C(=O)N[C@H](C(=O)O)C(C)C)[nH]c(=O)c2c1 [Compound 370]	> 10
Cc1cccc(NC(=O)Nc2ccc(CC(=O)N[C@@H](CC(C)C)C(=O)N[C@@H](CC(=O)O)C(=O)N[C@H](C(=O)N3CCC[C@H]3C(=O)O)C(C)C)cc2)n1 [Compound 346] ({X3-CO}-[X1]LDVP-OH)	< 0.05
CC(C)C[C@H](NC(=O)c1c2c(nc3ccccc13)CCCC2)C(=O)N[C@@H](CC(=O)O)C(=O)N[C@H](C(=O)O)C(C)C [Compound 391]	> 10
CCC(C)C(NC(=O)C(CC(=O)O)NC(=O)C(CC(C)C)NC(=O)c1ccc2ccccc2n1)C(=O)NC (stereo not drawn) [Compound 57]	0.05 to 10
CNC(=O)[C@H](CCC(=O)O)NC(=O)[C@@H]1CCCN1C(=O)Cc1ccc(NC(=O)Nc2ccccc2C)cc1 [Compound 413]	0.05 to 10
CC(C)C[C@H](NC(=O)Cc1ccc(NC(=O)Nc2ccccc2)cc1)C(=O)N[C@H](CC(=O)O)C(=O)N[C@H](C(=O)N1CCC[C@H]1C(N)=O)C(C)C [Compound 210] ({NHPh-CO}-[X1]L[dD]VP-NH2)	0.05 to 10
CNC(=O)C(NC(=O)C(CC(=O)O)NC(=O)C(Cc1ccc(O)cc1)NC(=O)Cc1ccccc1)C(C)C (stereo not drawn) [Compound 129] (PhAc-Tyr-Asp-Val-NHMe; configuration not given here)	> 10
Cc1ccccc1NC(=O)Nc1ccc(CC(=O)N[C@@H](CS)C(=O)N[C@@H](CC(=O)O)C(=O)N[C@H](C(N)=O)C(C)C)cc1 [Compound 274]	< 0.05
CC(C)C[C@H](NC(=O)[C@H](CC(=O)O)NC(=O)[C@H](CC(C)C)NC(=O)C1Cc2ccccc2CN1)C(=O)O (stereo partly drawn) [Compound 90] (H-[ξTic]LDL-OH)	> 10
